Where “and” joins values, the source holds several entries; their conditions need not be identical. Equal entries are not always repeated.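 48-hour exposure; five concentrations; linearly interpolated endpoints. GI50 = concentration required for 50% inhibition of growth. TGI denotes the concentration required for complete inhibition of growth.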
Legend:
Assay in all cases: NCI-60 cell line screen, 48 h
[1] = system: A498 renal
[2] = system: A549 NSCLC
[3] = system: CCRF-CEM leukemia
[4] = system: HCT-116 colon
[5] = system: M14 melanoma
[6] = system: MCF7 breast
[7] = system: MOLT-4 leukemia
[8] = system: NCI-H226 lung
[9] = system: NCI-H460 lung
[10] = system: SW-620 colon

| Compound | GI50 [1] | TGI [1] | GI50 [2] | TGI [2] | GI50 [3] | TGI [3] [µM] | GI50 [4] | TGI [4] | GI50 [5] | TGI [5] | GI50 [6] | TGI [6] | GI50 [7] | TGI [7] | GI50 [8] | TGI [8] | GI50 [9] | TGI [9] | GI50 [10] | TGI [10] |
| --- | --- | --- | --- | --- | --- | --- | --- | --- | --- | --- | --- | --- | --- | --- | --- | --- | --- | --- | --- | --- |
| O=S(=O)(Nc1ccc(Br)cc1)c1ccc(-c2cnc(C3CC3)o2)cc1 | 0.31 µM | 2.63 µM | 3.85 µM | 22.5 µM | 2.14 µM | 16.2 | 2.2 µM | 16 µM | 1.41 µM | 16.1 µM | 0.651 µM | 13.9 µM | 2.16 µM | 24.2 µM | 6.26 µM | 25 µM | 2.2 µM | 10.2 µM | 0.785 µM | 12.3 µM |
| CCN1C(=O)N(CC)C2C1NN=c1s/c(=C\c3ccc(Cl)cc3Cl)c(=O)n12 (stereo unspecified) | 0.0194 µM | 0.0667 µM | 0.0369 µM | > 55.5 µM | 0.0361 µM | > 100 | 0.0317 µM | – | 0.0304 µM | – | 0.0322 µM | > 43.4 µM | 0.0421 µM | > 64.5 µM | 0.129 µM | – | 0.0347 µM | 15.8 µM | 0.0439 µM | > 100 µM |
| C1CSCCCSCCCSCCCSCCCSCCCSCCCSCCCSC1 | – | > 100 µM | – | > 100 µM | – | > 100 | – | > 100 µM | – | > 100 µM | – | > 100 µM | – | > 100 µM | – | > 100 µM | – | > 100 µM | – | > 100 µM |
| C[C@@H](NC(C#N)c1ccco1)c1ccccc1 (stereo partly specified) | – | > 100 µM | – | > 100 µM | – | > 100 | – | > 100 µM | – | > 100 µM | – | > 100 µM | – | > 100 µM | – | > 100 µM | – | > 100 µM | – | > 100 µM |
| c1ccc(-c2nc(-c3ccccn3)nc(-c3ccccn3)n2)nc1 | 86.9 µM | > 100 µM | 47.9 µM | > 100 µM | 14.4 µM | > 100 | 19.4 µM | 78.6 µM | 31.4 µM | > 100 µM | 29.6 µM | > 100 µM | 21.2 µM | > 100 µM | 44.9 µM | > 100 µM | 12.1 µM | > 100 µM | 28 µM | > 100 µM |
| Cc1ccc2cnc(N)c(C#Cc3cc(C(=O)Nc4ccc(CN5CCN(C)CC5)c(C(F)(F)F)c4)cnc3C)c2c1 | 0.837 µM | 1.57 µM | – | – | 0.917 µM | 2.85 | 0.513 µM | 1.39 µM | 0.334 µM | 1.16 µM | 0.498 µM | 1.49 µM | – | – | 0.538 µM | 1.74 µM | 0.604 µM | 1.34 µM | 0.344 µM | 1.07 µM |
| Cn1ncc(-c2ccc3c(=O)[nH]nc(CN)c3c2)c1-c1c(F)c(Cl)cc(OC2CC2)c1C#N | 16 µM and 14.3 µM | 29.8 µM and 27.5 µM | 15.8 µM and 15.4 µM | 33.9 µM and 32.2 µM | 22.3 µM and 33.4 µM | > 100 | 13.1 µM and 12.8 µM | 29.1 µM and 27.5 µM | 14.2 µM and 13.4 µM | 28.9 µM and 27.5 µM | 10.8 µM and 10.2 µM | 23.6 µM and 23.3 µM | 10.9 µM and 11.7 µM | > 100 µM | 15.7 µM and 13.2 µM | 32 µM and 27.4 µM | 13.6 µM and 12.4 µM | 28.8 µM and 26.7 µM | 13.8 µM and 12.6 µM | 29.4 µM and 27.3 µM |
| O=C1OCC2=C1C(c1cccc(F)c1)c1cc3c(cc1N2CCO)OCO3 (stereo unspecified) | 1.11 µM | 4.87 µM | 8.74 µM | > 50 µM | 2.37 µM | > 50 | 1.53 µM | > 50 µM | 0.357 µM | > 50 µM | 1.44 µM | > 50 µM | 3.02 µM | > 50 µM | > 50 µM | > 50 µM | 2.08 µM | > 50 µM | 1.65 µM | > 50 µM |
| Nc1ncn([C@@H]2S[C@H](CO)[C@@H](O)[C@@H]2F)c(=O)n1 | 0.267 µM | – | 0.512 µM | > 100 µM | 0.0399 µM | > 100 | 0.265 µM | > 100 µM | 0.377 µM | 30.1 µM | 0.279 µM | > 100 µM | 0.172 µM | > 100 µM | 9.99 µM | > 100 µM | 0.442 µM | > 100 µM | 1.38 µM | > 100 µM |
| CC1CC(C)CC(C)C(O)/C(C#N)=C/C=C/CC(C2CCCC2C(=O)O)OC(=O)CC(O)C(C)C1 (stereo unspecified) | 0.0152 µM | 0.0482 µM and 0.0186 µM | 0.0681 µM | 0.496 µM and 0.919 µM | 0.0241 µM | – | 0.0473 µM | 0.7 µM and 0.145 µM | 0.026 µM | 0.0971 µM and 0.0576 µM | 0.00614 µM | 0.0436 µM | 0.0269 µM | 0.0641 µM and 0.209 µM | 0.031 µM | 0.0951 µM and 0.029 µM | 0.0518 µM | 0.371 µM | 0.0834 µM | 0.725 µM and 1.34 µM |
| COc1cc(C)ccc1C(=O)c1ccc(C)cc1OC | 1.24 µM | 39.6 µM | 3.35 µM | > 100 µM | 5.57 µM | > 100 | 3.25 µM | > 100 µM | 1.32 µM | > 100 µM | 0.92 µM | > 100 µM | 7.66 µM | > 100 µM | 4.45 µM | 72.7 µM | 3.39 µM | > 100 µM | 1.41 µM | > 100 µM |
| CCOc1ccccc1CCN=C1NC(=O)/C(=C/c2ccc3ncccc3c2)S1 | 0.744 µM | 12.8 µM | 1.23 µM | > 25 µM | 1.05 µM | 7.12 | 0.995 µM | > 9.15 µM | 2.17 µM | 10.4 µM | 0.792 µM | > 25 µM | 4.02 µM | > 25 µM | 4.32 µM | > 25 µM | 0.879 µM | > 25 µM | 0.712 µM | 5.28 µM |
| CC(=O)c1c(O)c(C)c(O)c(Cc2c(O)c3c(c(C(=O)/C=C/c4ccccc4)c2O)OC(C)(C)C=C3)c1O | – | 6.71 µM | – | 5.13 µM | – | > 100 | – | 10.2 µM | – | 18.4 µM | – | 19.9 µM | – | 16.8 µM | – | 23 µM | – | 16.4 µM | – | 14.8 µM |
| CC1=C([Se]CC(OC(=O)CC[Se]c2ccccc2)C(=O)NC(C)(C)C)C(=O)c2ccccc2C1=O (stereo unspecified) | 2.82 µM | 6.42 µM | 1.63 µM | 3.61 µM | 0.628 µM | 4.1 | 1.47 µM | 2.86 µM | 1.67 µM | 3.21 µM | 1.69 µM | 3.73 µM | 0.545 µM | 3.44 µM | 2 µM | 4.56 µM | 0.426 µM | 2.02 µM | 1.91 µM | 3.88 µM |

— PubChem BioAssay (NCI)
